The record followed here is US9366676B2, “Fluorescent chemical compounds having high selectivity for double stranded DNA, and methods for their use” (LIFE TECHNOLOGIES CORPORATION, priority 2005, dated 2016).

The data set has as its system calf thymus double stranded DNA and ribosomal RNA. The experiment in a line: Determination of DNA/RNA fluorescence ratios. It is filed as binding. The conditions noted are these: for DNA/RNA (fluorescence ratio): 65 ug/mL calf thymus dsDNA vs 65 ug/mL ribosomal RNA, 10 mM Tris, 1 mM EDTA pH 7.5, ratio of 1 = no selectivity; for ex/em: emission: emission value, second number of ex/em cell; for ex/em: excitation: excitation value, first number of ex/em cell. Here is the method: The tested compound was dissolved as a stock solution in DMSO at a concentration of about 0.1-1.0 mg/mL. The exact concentration is not critical. Three tubes are prepared, each containing the same 1-20 uL of stock solution. The first tube contained 10 mM Tris, 1 mM EDTA (pH 7.5) buffer; the second tube contained buffer and 65 ug/mL calf thymus double stranded DNA; and the third tube contained buffer and 65 ug/mL ribosomal RNA. The tubes were incubated at room temperature for 10-15 minutes with protection from light.
In some cases, it was necessary to dilute the sample to keep the fluorescence signal on-scale. In these cases, all three samples were diluted to the same degree. The ratio of the fluorescence of the compound in the presence of DNA and RNA was determined.
The following compounds were selected as representative of the inventive class of compounds. The fluorescence values in the presence of DNA and RNA were determined as described in the previous Example. […] A ratio of 1 would indicate no selectivity. Excitation and emission values are in nm

In the case of `COc1cccc(OC)c1-c1ccc2c(c1)sc(C=C1C=CN(C)c3ccccc31)[n+]2C` [Compound 65], the “DNA/RNA (fluorescence ratio)” value was determined as 11.3, the “ex/em: emission” value is on record as 536 nm and the “ex/em: excitation” value is reported as 506 nm.
Take `COc1cccc(OC)c1-c1ccc2c(c1)sc(C=C1C=CN(Cc3ccccc3)c3ccccc31)[n+]2C` [Compound 53]: the “DNA/RNA (fluorescence ratio)” value was 60, the “ex/em: emission” value came out at 540 nm and the “ex/em: excitation” value is on record as 510 nm.
For the molecule `CCCN(CCCN(C)C)C1=CC(=Cc2sc3cc(C(COC)COC)ccc3[n+]2C)c2ccccc2N1Cc1ccccc1` [Compound 101], the “DNA/RNA (fluorescence ratio)” value is 3, the “ex/em: emission” value is reported as 527 nm and the “ex/em: excitation” value is on record as 503 nm.
The like results for `C[n+]1c(C=C2C=CN(Cc3ccccc3)c3ccccc32)sc2cc(-c3cccs3)ccc21` [Compound 96] were, in that order, 8, 555 nm and 527 nm.
Turning to `COc1cccc(OC)c1-c1ccc2c(c1)sc(C=C1C=CN(Cc3cc[n+](C)cc3)c3ccccc31)[n+]2C` [Compound 56], the “DNA/RNA (fluorescence ratio)” value amounted to 3.7, the “ex/em: emission” value is recorded as 545 nm and the “ex/em: excitation” value was 515 nm.
Turning to `COC1=CC(=Cc2sc3cc(-c4c(OC)cccc4OC)ccc3[n+]2C)c2ccccc2N1Cc1ccccc1` [Compound 32], the “DNA/RNA (fluorescence ratio)” value stood at 36, the “ex/em: emission” value is on record as 517 nm and the “ex/em: excitation” value is 498 nm.
In the case of `CCCCn1cc(N2C(N(CCC)CCCN(C)C)=CC(=Cc3sc4cc(-c5c(OC)cccc5OC)ccc4[n+]3C)c3ccccc32)nn1` [Compound 57], the “DNA/RNA (fluorescence ratio)” value worked out at 3.8, the “ex/em: emission” value worked out at 536 nm and the “ex/em: excitation” value is on record as 506 nm.
Turning to `CCCN(CCCN(C)C)C1=CC(=Cc2sc3cc(-c4c(C)cccc4C)ccc3[n+]2C)c2ccccc2N1c1ccccc1` [Compound 68], the “DNA/RNA (fluorescence ratio)” value is given as 7, the “ex/em: emission” value was 523 nm and the “ex/em: excitation” value stood at 498 nm.
For `C[n+]1c(C=C2C=CN(Cc3ccccc3)C(c3ccccc3)=C2)sc2cc(-c3ccccc3)ccc21` [Compound 93], in that order: 1.5, 514 nm and 466 nm.
For `Cc1cccc(C)c1-c1ccc2c(c1)sc(C=C1C=C(N(C)CCCN(C)C)N(Cc3ccccc3)c3ccccc31)[n+]2C` [Compound 70], the “DNA/RNA (fluorescence ratio)” value was determined as 2.7, the “ex/em: emission” value turned out to be 524 nm and the “ex/em: excitation” value is given as 501 nm.
Regarding `CCN(CC)Cc1ccc(C2=CC(=Cc3sc4cc(-c5ccccc5)ccc4[n+]3C)c3ccccc3N2c2ccccc2)cc1` [Compound 91], the “DNA/RNA (fluorescence ratio)” value amounted to 1.5, the “ex/em: emission” value is listed as 563 nm and the “ex/em: excitation” value was 522 nm.
Consider `C#CCN1C(N(CCC)CCCN(C)C)=CC(=Cc2sc3cc(-c4c(OC)cccc4OC)ccc3[n+]2C)c2ccccc21` [Compound 34], for which the “DNA/RNA (fluorescence ratio)” value came to 5.8, the “ex/em: emission” value was 532 nm and the “ex/em: excitation” value amounted to 503 nm.
Turning to `C[n+]1c(C=C2C=CN(Cc3ccccc3)c3ccccc32)sc2cc(-c3cccnc3)ccc21` [Compound 97], the “DNA/RNA (fluorescence ratio)” value is given as 3.7, the “ex/em: emission” value is 538 nm and the “ex/em: excitation” value is given as 513 nm.
Consider `COc1cccc(OC)c1-c1ccc2c(c1)sc(C=C1C=C(N3CCNCC3)N(Cc3ccccc3)c3ccccc31)[n+]2C` [Compound 21], for which the “DNA/RNA (fluorescence ratio)” value was 5.4, the “ex/em: emission” value stood at 534 nm and the “ex/em: excitation” value is 510 nm.
For the molecule `CCCN(CCCN(C)C)C1=CC(=Cc2sc3cc(-c4c(OC)cccc4OC)ccc3[n+]2C)c2ccccc2N1c1ccccc1` [Compound 28], the “DNA/RNA (fluorescence ratio)” value worked out at 6.5, the “ex/em: emission” value is on record as 527 nm and the “ex/em: excitation” value turned out to be 497 nm.
On to `COc1cccc(OC)c1-c1ccc2c(c1)sc(C=C1C=CN(Cc3ccc(C[N+](C)(C)CCCN(C)C)cc3)c3ccccc31)[n+]2C` [Compound 46], for which the “DNA/RNA (fluorescence ratio)” value came to 11.5, the “ex/em: emission” value was 542 nm and the “ex/em: excitation” value is recorded as 512 nm.
Consider `CCCN(CCCN(C)C)C1=CC(=Cc2sc3cc(-c4c(OC)cccc4OC)ccc3[n+]2C)c2ccccc2N1Cc1ccccc1` [Compound 16], for which the “DNA/RNA (fluorescence ratio)” value was 15.2, the “ex/em: emission” value is given as 532 nm and the “ex/em: excitation” value worked out at 504 nm.
Regarding `COc1cccc(OC)c1-c1ccc2c(c1)sc(C=C1C=C(N(C)CCN(C)C)N(Cc3ccccc3)c3ccccc31)[n+]2C` [Compound 18], the “DNA/RNA (fluorescence ratio)” value was 3.5, the “ex/em: emission” value is 533 nm and the “ex/em: excitation” value is 505 nm.
For `CNCCN(C)C1=CC(=Cc2sc3cc(-c4c(OC)cccc4OC)ccc3[n+]2C)c2ccccc2N1Cc1ccccc1` [Compound 22], the “DNA/RNA (fluorescence ratio)” value was 4.7, the “ex/em: emission” value came out at 534 nm and the “ex/em: excitation” value came to 505 nm.
Take `CCCN(CCCN(C)C)C1=CC(=Cc2sc3cc(-c4c(OC)cccc4OC)ccc3[n+]2C)c2ccc(OC)cc2N1Cc1ccccc1` [Compound 38]: the “DNA/RNA (fluorescence ratio)” value came out at 13, the “ex/em: emission” value is given as 522 nm and the “ex/em: excitation” value turned out to be 497 nm.
On to `CCOC(=O)CCCOc1cccc(CN2C=C/C(=C\c3sc4cc(-c5c(OC)cccc5OC)ccc4[n+]3C)c3ccccc32)c1` [Compound 112], for which the “DNA/RNA (fluorescence ratio)” value was found to be 191, the “ex/em: emission” value was 541 nm and the “ex/em: excitation” value is recorded as 500 nm.
For the molecule `Cc1cccc(C)c1-c1ccc2c(c1)sc(C=C1C=C(N(C)CCCN(C)C)N(c3ccccc3)c3ccccc31)[n+]2C` [Compound 69], the “DNA/RNA (fluorescence ratio)” value amounted to 3.2, the “ex/em: emission” value is recorded as 523 nm and the “ex/em: excitation” value is recorded as 494 nm.
For the molecule `COc1cccc(OC)c1-c1ccc2c(c1)sc(C=C1C=CN(Cc3ccc(CN4CCOCC4)cc3)c3ccccc31)[n+]2C` [Compound 45], the “DNA/RNA (fluorescence ratio)” value worked out at 13.2, the “ex/em: emission” value came out at 541 nm and the “ex/em: excitation” value came to 511 nm.
On to `C[n+]1c(C=CC=C2C=CN(Cc3ccccc3)c3ccccc32)sc2cc(-c3ccccc3)ccc21` [Compound 103], for which the “DNA/RNA (fluorescence ratio)” value came out at 3.1, the “ex/em: emission” value was determined as 537 nm and the “ex/em: excitation” value was determined as 507 nm.
Take `COc1cccc(OC)c1-c1ccc2c(c1)sc(C=C1C=CN(Cc3ccc(CN4CCN(C)CC4)cc3)c3ccccc31)[n+]2C` [Compound 44]: the “DNA/RNA (fluorescence ratio)” value worked out at 22, the “ex/em: emission” value is 540 nm and the “ex/em: excitation” value came out at 510 nm.
Turning to `COc1cccc(OC)c1-c1ccc2c(c1)sc(C=C1C=CN(Cc3ccc(C[N+](C)(C)CCC[N+](C)(C)C)cc3)c3ccccc31)[n+]2C` [Compound 49], the “DNA/RNA (fluorescence ratio)” value came out at 18, the “ex/em: emission” value stood at 542 nm and the “ex/em: excitation” value came out at 520 nm.
As to `C[n+]1c(C=C2C=CN(Cc3ccccc3)c3ccccc32)sc2cc(-c3ccccc3)ccc21` [Compound 92], the “DNA/RNA (fluorescence ratio)” value is reported as 1, the “ex/em: emission” value was 501 nm and the “ex/em: excitation” value is 458 nm.
For `COc1cccc(OC)c1-c1ccc2c(c1)sc(C=C1C=CN(CCc3ccccc3)c3ccccc31)[n+]2C` [Compound 62], the “DNA/RNA (fluorescence ratio)” value was determined as 48, the “ex/em: emission” value is reported as 539 nm and the “ex/em: excitation” value stood at 510 nm.
`CCOC(=O)CCCOc1cccc(CN2C=CC(=CC=Cc3sc4cc(-c5ccccc5)ccc4[n+]3C)c3ccccc32)c1` [Compound 104]: the “DNA/RNA (fluorescence ratio)” value came out at 9, the “ex/em: emission” value is 666 nm and the “ex/em: excitation” value is listed as 652 nm.
As to `CC(=O)Nc1ccccc1-c1ccc2c(c1)sc(C=C1C=CN(Cc3ccccc3)c3ccccc31)[n+]2C` [Compound 94], the “DNA/RNA (fluorescence ratio)” value is given as 2.1, the “ex/em: emission” value is 530 nm and the “ex/em: excitation” value is recorded as 513 nm.
For the molecule `COc1cccc(OC)c1-c1ccc2c(c1)sc(C=C1C=CN(Cc3ccc(C[N+](C)(C)C)cc3)c3ccccc31)[n+]2C` [Compound 48], the “DNA/RNA (fluorescence ratio)” value worked out at 7.3, the “ex/em: emission” value worked out at 540 nm and the “ex/em: excitation” value is 513 nm.
With `C[n+]1c(C=C2C=CN(Cc3ccccc3)c3ccccc32)oc2ccc(-c3ccccc3)cc21` [Compound 89], the “DNA/RNA (fluorescence ratio)” value was found to be 1.8, the “ex/em: emission” value was found to be 512 nm and the “ex/em: excitation” value worked out at 485 nm.
Regarding `C[n+]1c(C=C2C=CN(Cc3ccccc3)c3ccccc32)sc2cc(-c3ccc(O)cc3)ccc21` [Compound 100], the “DNA/RNA (fluorescence ratio)” value is 8.1, the “ex/em: emission” value is recorded as 551 nm and the “ex/em: excitation” value is listed as 513 nm.
On to `COc1cccc(OC)c1-c1ccc2c(c1)sc(C=C1C=CN(Cc3ccccc3)C(SCCCN(C)C)=C1)[n+]2C` [Compound 102], for which the “DNA/RNA (fluorescence ratio)” value is 3.3, the “ex/em: emission” value is recorded as 515 nm and the “ex/em: excitation” value is on record as 475 nm.
